Reference: patent publication US12551421B2, “N-heptyl-glyceryl ether and synergistically active preservatives” (Evonik Operations GmbH, priority 2020, dated 2026)
In brackets after ≈: the same amount, converted by molar mass.

What was measured:
[1] = tested on: S. aureus; test: Preservation challenge test in O/W emulsion base #1, log reduction of viable microorganisms by plate count; type: cell-based; details: combined with another antimicrobial component in base #1, up to 28 days, FIGS. 12 to 19
Description: (§1) An O/W emulsion (base #1) was prepared as follows, and n-heptyl glyceryl ether, further antimicrobial compounds and combinations thereof were added to these bases:
(§2) Processing: • 1. Premix phase A and B separately and heat up to 78° C. • 2. Add phase A1 to A under stirring and wait until everything is dissolved. • 3. Add phase B to A under stirring. (Speed 6, for 30 sec.) Homogenize for 90 sec. using an Ultra Turrax. • 4. Cool down using a water bath • 5. Adjust pH.
(§3) Preparatory to the test, the surface of casein soya bean digest agar for bacteria or Saboraud-dextrose agar without the addition of antibiotics for fungi is inoculated with the recently grown stock culture of each of the specified microorganisms. […]
(§4) To count the viable microorganisms in the inoculated products, the agar medium used for the initial cultivation of the respective microorganism is used. […] At zero hour and at 7, 14 and 28 days 1 ml is removed from the sample and the number of viable microorganisms is determined by plate count. […]
To determine the efficacy of the antimicrobial composition, n-heptyl glyceryl ether, another antimicrobial compound and combinations thereof were incorporated into base as shown above. The antimicrobial activity against S. aureus was then evaluated as described above. […]

[2] = tested on: A. brasiliensis; test: as above; type: cell-based; details: combined with another antimicrobial component in base #1, up to 28 days, FIGS. 1 to 12
[3] = tested on: C. albicans; test: as above; type: cell-based; details: combined with another antimicrobial component in base #1, up to 28 days, FIGS. 20 to 25
Description: as §1, §2, §3, §4
To determine the efficacy of the antimicrobial composition, n-heptyl glyceryl ether, another antimicrobial compound and combinations thereof were incorporated into base #1 as shown above. The antimicrobial activity against C. albicans was then evaluated as described above. […]

[4] = Water solubility / critical micelle concentration of n-heptyl-glyceryl ether; type: physicochemical; details: water, without component B); read-out: water solubility before micelles are forming
Source text: N-heptyl-glyceryl ether has a water solubility of approximately 2 g/l before micelles are forming.

| Compound | synergistic antimicrobial effect (log 10 reduction of combination greater than sum of individual components) [1] | synergistic antimicrobial effect (log 10 reduction of combination greater than sum of individual components) [2] | synergistic antimicrobial effect (log 10 reduction of combination greater than sum of individual components) [3] | solubility [4] [µg/mL] |
| --- | --- | --- | --- | --- |
| CCCCC(CC)COCC(O)CO (stereo not shown) [ethylhexyl glycerin, reference compound] | No such synergism | No such synergism | No such synergism | – |
| CCCCCCCOCC(O)CO (stereo not shown) [n-heptyl glyceryl ether] | synergistic antimicrobial effects | synergistic antimicrobial effects | synergistic antimicrobial effects | ~2000 (≈ 10.5 mM) |
